Our source for the EC50 values is ChEMBL document CHEMBL1144942, “Enantioselective responses to a phosphorothioate analogue of lysophosphatidic acid with LPA3 receptor-selective agonist activity” (J Med Chem, 2003).

Each structure is given as a SMILES string.

The test system of one assay is HT-29. As to the kind of experiment: Agonistic activity in human HT-29 colon cancer cells. The assay is classed as functional, cell-based.
The next assay has as its system OVCAR-3. In words: Agonistic activity in human OVCAR-3 (ovarian cancer cells). It is filed as functional, cell-based.

What is called EC50 is the concentration needed to bring the measured effect to its halfway point.

For `CCCCCCCCCCCCCCCCCC(=O)OC[C@H](COP(O)(O)=S)OC`, the figures for the EC50 in the assay with HT-29 and with OVCAR-3 were under 1000 µM and 0.009 µM, respectively.
The matching figures for `CCCCCCCCCCCCCCCCCC(=O)OC[C@@H](COP(O)(O)=S)OC`: under 1000 µM and 0.0465 µM.
